US20060292151A1, “L-SIGN polymorphisms and methods involving use of same” (priority 2004, published 2006)

Test system: L-SIGN alleles: L-SIGN-4, -5, -7 and -9
Test: Inhibition of L-SIGN-mediated trans-infection of Hep3B cells by HCVpp
Format: cell-based, human
Settings: mannan 20 μg/ml
Protocol: FIG. 9. Inhibition of trans-infection with agents to the CRD of L-SIGN. HeLa or HeLa-SIGN transfectants stably expressing the indicated polymorphic forms of L-SIGN were incubated with mannan (20 μg/ml), anti-CRD mAbs (120604 and 120612, 10 μg/ml), or IgG2a isotype-control IgG (10 μg/ml) prior to addition to HCVpp. Cells were incubated an additional 2 h, washed and combined with Hep3B cells. Cultures were maintained for 48 h prior to lysis and measurement of luciferase activity. The data represent the percent of trans-infection relative to that observed in the absence of inhibitor. The values were calculated as (net RLU in the presence of inhibitor)/(net RLU in the absence of inhibitor)×100, where net RLU represents the difference in RLU values observed between transfected and parental HeLa cells. Negative values are omitted for clarity. The data represent the average of 3 independent measurements. […]
Parental HeLa cells and HeLa-SIGN transfectants (2×10^4) were incubated with 200 μl of viral supernatant for 2 h at 37° C. […] Luciferase activity was measured in cell lysates using the Luciferase Assay System (Promega, Madison, Wis.) according to the manufacturer's instructions. […] Data were analyzed for statistical significance using 2-sided t-tests and a significance level of P<0.05 unless otherwise indicated. […]

Sequence of L-SIGN alleles: L-SIGN-4, -5, -7 and -9 (Q9H2X3 250-399 limits assumed): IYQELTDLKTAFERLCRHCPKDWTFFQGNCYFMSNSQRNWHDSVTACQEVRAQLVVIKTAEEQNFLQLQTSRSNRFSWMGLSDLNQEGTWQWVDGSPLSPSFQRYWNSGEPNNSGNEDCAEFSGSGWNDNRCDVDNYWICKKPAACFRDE

mannan
average level of inhibition of trans-infection across the different isoforms: 77% | level of trans-infection inhibited (range over L-SIGN-4, -5, -7 and -9) (30 min before HCVpp, Hep3B co-culture 48 h, luciferase): 47-95%
